Laboratory results: article PMC2698043 (Journal of medicinal chemistry, 2009)

Key:
[1] = target: T1, human PNP (Homo sapiens, UniProt P00491); test: biochemical
[2] = target: T1, human PNP
[3] = target: blood PNP (Mus musculus, UniProt P23492); settings: mice
Sequence of blood PNP (P23492 whole entry): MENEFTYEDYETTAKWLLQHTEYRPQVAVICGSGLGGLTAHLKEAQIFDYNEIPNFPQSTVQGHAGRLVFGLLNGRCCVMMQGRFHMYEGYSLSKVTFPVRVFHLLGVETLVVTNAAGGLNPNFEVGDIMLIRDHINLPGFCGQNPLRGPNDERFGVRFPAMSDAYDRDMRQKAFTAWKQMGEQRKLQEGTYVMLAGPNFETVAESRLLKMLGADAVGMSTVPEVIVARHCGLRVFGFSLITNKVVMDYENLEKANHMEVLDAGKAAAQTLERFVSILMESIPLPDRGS

T1 sequence (P00491 whole entry): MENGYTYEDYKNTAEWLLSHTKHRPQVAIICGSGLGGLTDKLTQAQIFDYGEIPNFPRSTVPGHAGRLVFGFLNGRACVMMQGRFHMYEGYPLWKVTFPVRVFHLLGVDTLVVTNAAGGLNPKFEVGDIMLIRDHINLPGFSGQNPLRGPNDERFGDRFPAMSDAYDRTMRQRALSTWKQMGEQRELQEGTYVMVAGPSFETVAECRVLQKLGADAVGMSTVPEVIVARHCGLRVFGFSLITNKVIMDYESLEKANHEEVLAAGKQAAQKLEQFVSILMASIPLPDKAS

| Kd [1] [pM] | times more active inhibitor than 9-deazahypoxanthine analogue 11 [2] | time to complete inhibition of PNP catalytic activity ([3]; single 50 nmol dose, i.p. injection) [min] | inhibition of blood PNP catalytic activity ([3]; single oral dose, for a period of 25 days) [%] | SMILES |
| --- | --- | --- | --- | --- |
| 2.1 |  |  |  | Nc1nc2c(CNC(CO)CO)c[nH]c2c(=O)[nH]1 [Compound 8, 2-Amino-7-{[(1,3-dihydroxypropan-2-yl)amino]methyl}-3,5-dihydro-4H-pyrrolo[3,2-d]pyrimidin-4-one] |
|  | 2 – 3 times |  |  | Nc1nc2c(CN[C@H](CO)[C@H](O)CO)c[nH]c2c(=O)[nH]1 [Compound 9, 2-Amino-7-({[(2R,3S)-1,3,4-trihydroxybutan-2-yl]amino}methyl)-3,5-dihydro-4Hpyrrolo[3,2-d]pyrimidin-4-one] |
| 5.2 |  | ≤ 20 | > 50 | O=c1[nH]cnc2c(CNC(CO)CO)c[nH]c12 [Compound 10] |
